Results from ChEMBL document CHEMBL2429852, “Synthesis and evaluation of new chalcones, derived pyrazoline and cyclohexenone derivatives as potent antimicrobial, antitubercular and antileishmanial agents” (Med Chem Res, 2013).
In brackets after ≈: the same amount, converted by molar mass.

Experiments:
Streptococcus pyogenes = assay: Antibacterial activity against Streptococcus pyogenes MTCC 443 assessed as growth inhibition by broth microdilution method; type: functional
[1] = Selectivity index, ratio of CC50 for mouse J774A1 cells to IC50 for promastigote stage of Leishmania braziliensis H3; type: functional, J774.A1
Escherichia coli = assay: Antibacterial activity against Escherichia coli MTCC 442 assessed as growth inhibition by broth microdilution method; type: functional
Candida albicans [2] = assay: Potency index, ratio of griseofulvin MIC to compound MIC for Candida albicans MTCC 227; type: functional
Leishmania braziliensis = assay: Antileishmanial activity against promastigote stage of Leishmania braziliensis H3 assessed as parasite growth inhibition after 72 hrs by Neubauer chamber counting method; type: functional, organism-based
Aspergillus niger = assay: Antifungal activity against Aspergillus niger MTCC 282 assessed as growth inhibition by broth microdilution method; type: functional
[3] = Cytotoxicity against mouse J774A1 cells after 72 hrs by MTT assay; type: cell-based, J774.A1
[4] = system: Mycobacterium tuberculosis; assay: Antitubercular activity against Mycobacterium tuberculosis H37Rv assessed as growth inhibition after 12 to 28 days by Lowenstein-Jensen agar method; type: functional; settings: for MIC: Mycobacterium tuberculosis, H37Rv
Aspergillus clavatus = assay: Antifungal activity against Aspergillus clavatus MTCC 1323 assessed as growth inhibition by broth microdilution method; type: functional
Staphylococcus aureus [5] = assay: Antibacterial activity against Staphylococcus aureus MTCC 96 assessed as growth inhibition by broth microdilution method; type: functional
Pseudomonas aeruginosa [6] = assay: Antibacterial activity against Pseudomonas aeruginosa MTCC 2488 assessed as growth inhibition by broth microdilution method; type: functional
Candida albicans [7] = assay: Antifungal activity against Candida albicans MTCC 227 assessed as growth inhibition by broth microdilution method; type: functional
Staphylococcus aureus [8] = assay: Potency index, ratio of ampicillin MIC to compound MIC for Staphylococcus aureus MTCC 96; type: functional
Pseudomonas aeruginosa [9] = assay: Potency index, ratio of ampicillin MIC to compound MIC for Pseudomonas aeruginosa MTCC 2488; type: functional
[10] = Leishmania braziliensis, H3, 72 h, read-out: IC50

SMILES | MIC99 (Streptococcus pyogenes) | Ratio CC50/IC50 [1] | MIC99 (Escherichia coli) | Ratio (Candida albicans [2]) | IC50 (Leishmania braziliensis; [10]) | MIC99 (Aspergillus niger) | CC50 at 72 h [3] | growth inhibition (GI) [4] | MIC [4] | MIC99 (Aspergillus clavatus) | MIC99 (Staphylococcus aureus [5]) | MIC99 (Pseudomonas aeruginosa [6]) | MIC99 (Candida albicans [7]) | IC50 (Leishmania braziliensis) | Ratio (Staphylococcus aureus [8]) | Ratio (Pseudomonas aeruginosa [9])
COc1cc(/C=C/C(=O)c2cccc([N+](=O)[O-])c2)cc(OC)c1OC | 100 µg/mL | 5.26 | 250 µg/mL | 2 | 9.3 µM | > 1000 µg/mL | 49 µM | 99% | 25 µg/mL (≈ 72.8 µM) | > 1000 µg/mL | 100 µg/mL | 250 µg/mL | 250 µg/mL | – | – | –
COc1ccc(C2CC(c3cccc([N+](=O)[O-])c3)=NN2C(C)=O)cc1 (stereo not given) | 250 µg/mL | – | 250 µg/mL | – | – | 1000 µg/mL | – | 99% | 250 µg/mL (≈ 737 µM) | 1000 µg/mL | 250 µg/mL | 250 µg/mL | 1000 µg/mL | Not Active | – | –
COc1ccc(C2CC(c3cccc([N+](=O)[O-])c3)=NN2C(C)=O)cc1OC (stereo not given) | 125 µg/mL | – | 500 µg/mL | 2 | – | 500 µg/mL | – | 99% | 500 µg/mL (≈ 1350 µM) | 500 µg/mL | 125 µg/mL | 250 µg/mL | 200 µg/mL | Not Active | – | –
CC(=O)N1N=C(c2cccc([N+](=O)[O-])c2)CC1c1ccc2c(c1)OCO2 (stereo not given) | 250 µg/mL | – | 250 µg/mL | – | – | 500 µg/mL | – | 99% | 250 µg/mL (≈ 708 µM) | 500 µg/mL | 250 µg/mL | 200 µg/mL | 500 µg/mL | Not Active | – | –
COc1cc(OC)c(OC)cc1/C=C/C(=O)c1cccc([N+](=O)[O-])c1 | 500 µg/mL | – | 125 µg/mL | – | – | 1000 µg/mL | – | 99% | 250 µg/mL (≈ 728 µM) | 1000 µg/mL | 500 µg/mL | 125 µg/mL | 1000 µg/mL | Not Active | – | –
O=[N+]([O-])c1cccc(C2=NNC(c3ccc4c(c3)OCO4)C2)c1 (stereo not given) | 125 µg/mL | – | 100 µg/mL | 2 | – | 1000 µg/mL | – | 98% | 500 µg/mL (≈ 1610 µM) | 1000 µg/mL | 100 µg/mL | 200 µg/mL | 250 µg/mL | Not Active | – | –
O=[N+]([O-])c1cccc(C2=NNC(c3ccc4ccccc4c3)C2)c1 (stereo not given) | 125 µg/mL | – | 250 µg/mL | 5 | – | 100 µg/mL | – | 99% | 62.5 µg/mL (≈ 197 µM) | 250 µg/mL | 50 µg/mL | 25 µg/mL | 100 µg/mL | Not Active | 2 | 4
CCOC(=O)C1C(=O)C=C(c2cccc([N+](=O)[O-])c2)CC1c1ccc(OC)cc1 (stereo not given) | 500 µg/mL | – | 100 µg/mL | – | – | > 1000 µg/mL | – | 98% | 500 µg/mL (≈ 1260 µM) | > 1000 µg/mL | 250 µg/mL | 200 µg/mL | 500 µg/mL | Not Active | – | –
CCOC(=O)C1C(=O)C=C(c2cccc([N+](=O)[O-])c2)CC1c1ccc2c(c1)OCO2 (stereo not given) | 200 µg/mL | – | 125 µg/mL | – | – | 1000 µg/mL | – | 99% | 250 µg/mL (≈ 611 µM) | 1000 µg/mL | 250 µg/mL | 200 µg/mL | 500 µg/mL | Not Active | – | –
CCOC(=O)C1C(=O)C=C(c2cccc([N+](=O)[O-])c2)CC1c1cc(OC)c(OC)c(OC)c1 (stereo not given) | 200 µg/mL | – | 200 µg/mL | – | – | > 1000 µg/mL | – | 99% | 250 µg/mL (≈ 549 µM) | > 1000 µg/mL | 200 µg/mL | 200 µg/mL | 100 µg/mL | Not Active | – | –
COc1ccc(/C=C/C(=O)c2cccc([N+](=O)[O-])c2)cc1 | 500 µg/mL | – | 200 µg/mL | – | – | 200 µg/mL | – | 98% | 1000 µg/mL (≈ 3530 µM) | 200 µg/mL | 500 µg/mL | 200 µg/mL | 1000 µg/mL | Not Active | – | –
COc1ccc(/C=C/C(=O)c2cccc([N+](=O)[O-])c2)c(OC)c1OC | 250 µg/mL | 10.06 | 200 µg/mL | – | 8.9 µM | > 1000 µg/mL | 89.5 µM | 98% | 500 µg/mL (≈ 1460 µM) | > 1000 µg/mL | 250 µg/mL | 200 µg/mL | 1000 µg/mL | – | – | –
